Measured values from patent publication US20260033491A1, “FUNGAL SPORE FORMULATIONS INCLUDING CARRIER FLUIDS” (priority 2018, published 2026).
Read-outs that look alike come from different tables or passages of the source. Marks after values point to notes of the source that are not given here.

What was measured:
Type in all cases: cell-based
[1] = tested on: Purpureocillium lilacinum spores; assay: Spore viability (germination rate) of Purpureocillium lilacinum spores dispersed in fluid and stored at 30° C.
Method: (§1) 3 g of Purpureocillium lilacinum pure spore powder were transferred into a formulation vessel (IKA Type DT-20 mixing vessel with dispersion tool for Ultra Turrax) using a sterile spoon. 12 mL of fluid were added into the respective formulation vessel and dispersed using ultra turrax tube drive control for 1 min at 3000 rpm; change direction after 30 sec. After this 2.8 mL were transferred in four sample bottles (Wheaton Serum vial, Type I) leaving little headspace and closed tight using crimpneck caps (Macherey—Nagel type N 13). Afterwards all sample bottles were transferred to an incubator set at 30° C. and stored for a given time.
(§2) In regular intervals a sample was retrieved from the storage location and analyzed for spore viability. For this purpose, the original samples were thoroughly homogenized. Aliquots of 0.25 g or 250 μL of each sample were transferred into 50 mL falcon tubes. The tubes were filled up to 25 g using a sterile aqueous solution containing 2% Tween 80 and homogenized by vortexing to achieve the first dilution step (1:100 dilution). This dilution was used for further dilution and spotting on agar.
(§3) For these samples, an alternative dispersion/dilution method was applied where the oil phase was stripped from the spores first: 0.25 g or 250 μL of sample are weighted into a 2 mL Eppendorf tube, and 0.5 mL of 2% Tween 80 is added, and the mixture is transferred into an Eppendorf centrifuge where it is centrifuged for 1 min at 10.000 rpm. The supernatant (=upper oily phase) is discarded by using a pipette. […] 250 μL or 0.25 g of each sample were transferred into a sterile 50 mL Falcon tube. The tubes were filled up to 25 g using a sterile aqueous solution containing 2% Tween 80 and homogenized by vortexing to achieve the first dilution step (1:100 dilution). This dilution was used for further dilution and spotting on agar.
(§4) For evaluation of spore germination rate prepare a 1:30000 dilution based on the 1:100 dilution achieved by multiple automated dilution (pipetting robot, 96 well plate). Afterwards 12×12 cm agar plates were taken and spotted with 10 times 5 μL of each sample using an automated 12-Channel pipet. Wait until liquid is soaked up by agar and transfer agar plate to an incubator and incubate at 25° C. for 17 hours. Open the plate and place it under the microscope. Randomly chose one area per spot and record the number of germinated and non-germinated spores that are within the designated field. At least 200 spores per sample need to be evaluated. If needed count more than one field per spot.

[2] = tested on: Penicillium bilaii spores; assay: Spore viability (germination rate) of Penicillium bilaii spores dispersed in fluid and stored at 30° C.
Method: as §1, with “1.5 g” for “3 g”, “of Penicillium bilaii” for “of Purpureocillium lilacinum”, “spoon. 13.5” for “spoon. 12”, “N 13)” for “N 13).”
as §2, with “viability. Therefore” for “viability. For this purpose,”, “sample are” for “sample were”
Not all samples mixed well or mixed at all in 2% Tween 80. For these samples, an alternative dispersion/dilution method was applied where the oil phase is stripped from the spores first: 0.25 g or 250 μL of sample are weighted into a 2 mL Eppendorf tube, and 0.5 mL of 2% Tween 80 is added, and the mixture is transferred into an Eppendorf centrifuge where it is centrifuged for 1 min at 10.000 rpm. The supernatant (=upper oily phase) is discarded by using a pipette. Afterwards 250 μL of Breakthru S 240 are added and the spores are well dispersed. 250 μL or 0.25 g of each sample are transferred into a sterile 50 mL Falcon tube. The tubes were filled up to 25 g using a sterile aqueous solution containing 2% Tween 80 and homogenized by vortexing to achieve the first dilution step (1:100 dilution). This dilution is used for further dilution and spotting on agar.
as §4, with “1:15000” for “1:30000”, “are” for “were”, “20°” for “25°”

[3] = tested on: Beauveria bassiana spores; assay: Spore viability (germination rate) of Beauveria bassiana spores dispersed in fluid and stored at 30° C.
Method: as §1, with “1.5 g” for “3 g”, “of Beauveria bassiana” for “of Purpureocillium lilacinum”, “spoon. 13.5” for “spoon. 12”, “N 13)” for “N 13).”
as §2, with “viability. Therefore” for “viability. For this purpose,”, “sample are” for “sample were”
as §3, with “phase is” for “phase was”, “sample are” for “sample were”, “dilution is” for “dilution was”
as §4, with “1:15000” for “1:30000”, “are” for “were”, “20°” for “25°”

[4] = P. lilacinum spores in fluid, day 1
[5] = P. lilacinum spores in fluid, storage at 30° C., 35-40 d
[6] = P. lilacinum spores in fluid, storage at 30° C., 87-92 d
[7] = Penicillium bilaii spores in fluid, 1-2 d
[8] = Penicillium bilaii spores in fluid, storage at 30° C., 41-43 d
[9] = Penicillium bilaii spores in fluid, storage at 30° C., 83-85 d
[10] = Beauveria bassiana spores in fluid, day 1
[11] = Beauveria bassiana spores in fluid, storage at 30° C., 14 d
[12] = Beauveria bassiana spores in fluid, storage at 30° C., 35 d
[13] = P. lilacinum spores in fluid, storage at 30° C., 12-15 d
[14] = P. lilacinum spores in fluid, storage at 30° C., 27-28 d
[15] = P. lilacinum spores in fluid, storage at 30° C., 51-55 d
[16] = P. lilacinum spores in fluid, storage at 30° C., 7 m

`CCCCOC(=O)CC(CC(=O)OCCCC)(OC(C)=O)C(=O)OCCCC` [Acetyltributylcitrat, O-Acetyl citric acid tributyl ester] was tested, and the “spore viability [%] at day 1” value [1, 4] was 98.9%, the “spore viability [%] after 5-6 w (35-40 d)” value [1, 5] was 98.0% and the “spore viability [%] after 3 m (87-92 d)” value [1, 6] was 87.5%. For the same compound, the “spore viability [%] initial (1-2 d)” value [2, 7] was 98.4%, the “spore viability [%] 6 w@30° C. (41-43 d)” value [2, 8] was 83.8% and the “spore viability [%] 3 m@30° C. (83-85 d)” value [2, 9] was 60.6%. The “spore viability [%] at day 1” value [3, 10] was 85.5%, the “spore viability [%] after 2 w (14 d)” value [3, 11] was 76.7% and the “spore viability [%] after 5 w (35 d)” value [3, 12] was 58.8%.

With `CC(C)CCCCCCOC(=O)C1CCCCC1C(=O)OCCCCCCC(C)C` (stereo not drawn) [Agnique AE829, 1,2-Cyclohexane dicarboxylic acid diisononyl ester] the “spore viability [%] after 2 w (12-15 d)” value [1, 13] was 97.3%, the “spore viability [%] after 1 m (27-28 d)” value [1, 14] was 96.5% and the “spore viability [%] after 2 m (51-55 d)” value [1, 15] was 89.8%. For the same compound, the “spore viability [%] initial (1-2 d)” value [2, 7] was 95.3%, the “spore viability [%] 6 w@30° C. (41-43 d)” value [2, 8] was 89.4% and the “spore viability [%] 3 m@30° C. (83-85 d)” value [2, 9] was 71.9%. The “spore viability [%] at day 1” value [3, 10] was 89.7%, the “spore viability [%] after 2 w (14 d)” value [3, 11] was 74.9% and the “spore viability [%] after 5 w (35 d)” value [3, 12] was 57.8%.

With `CC(C)OC(=O)CCCCC(=O)OC(C)C` [Crodamol DA, Diisopropyl adipate] the “spore viability [%] at day 1” value [1, 4] was 98.2%, the “spore viability [%] taken after 7 m of storage” value (shortened to “spore viability [%] taken”) [1, 16] was 51.3* % and the “spore viability [%] after 2 w (12-15 d)” value [1, 13] was 94.3%. For the same compound, the “spore viability [%] after 1 m (27-28 d)” value [1, 14] was 95.0% and the “spore viability [%] after 2 m (51-55 d)” value [1, 15] was 68.2%.

For `CCCCCOC(=O)CC` [Pentyl Propionate, Propionic acid Pentyl ester], the “spore viability [%] at day 1” value [1, 4] was 99.1%, the “spore viability [%] after 5-6 w (35-40 d)” value [1, 5] was 94.6% and the “spore viability [%] after 3 m (87-92 d)” value [1, 6] was 16.1%.

In the case of `CCCCCC[C@@H](O)C/C=C\CCCCCCCC(=O)OC` [Radia 7081, Ricinolic acid methylester], the “spore viability [%] after 1 m (27-28 d)” value [1] is reported as 95.8%, the “spore viability [%] after 2 m (51-55 d)” value [1] is reported as 88.6% and the “spore viability [%] after 2 w (12-15 d)” value [1] is reported as 94.7%.

With `CCCCCCCCCCCC(=O)OCC(CC)CCCC` (stereo not drawn) [Radia 7127, 2-Ethylhexyl laurate] the “spore viability [%] at day 1” value [1, 4] was 99.1%, the “spore viability [%] taken” value [1, 16] was 40.6* % and the “spore viability [%] after 2 w (12-15 d)” value [1, 13] was 99.0%. For the same compound, the “spore viability [%] after 1 m (27-28 d)” value [1, 14] was 98.3%, the “spore viability [%] after 2 m (51-55 d)” value [1, 15] was 88.4% and the “spore viability [%] initial (1-2 d)” value [2, 7] was 97.1%. The “spore viability [%] 6 w@30° C. (41-43 d)” value [2, 8] was 96%, the “spore viability [%] 3 m@30° C. (83-85 d)” value [2, 9] was 77.9% and the “spore viability [%] at day 1” value [3, 10] was 91.3%. For the same compound, the “spore viability [%] after 2 w (14 d)” value [3, 11] was 76.3% and the “spore viability [%] after 5 w (35 d)” value [3, 12] was 68.4%.

In the case of `CCCCCCCC/C=C\CCCCCCCC(=O)OCC(CC)CCCC` (stereo not drawn) [Radia 7331, 2-Ethylhexyl oleate], the “spore viability [%] after 2 w (12-15 d)” value [1, 13] is reported as 97.9%, the “spore viability [%] after 1 m (27-28 d)” value [1, 14] is reported as 95.9% and the “spore viability [%] after 2 m (51-55 d)” value [1, 15] is reported as 85.9%. The “spore viability [%] initial (1-2 d)” value [2, 7] was 97.1%, the “spore viability [%] 6 w@30° C. (41-43 d)” value [2, 8] was 91.4% and the “spore viability [%] 3 m@30° C. (83-85 d)” value [2, 9] was 75.7%. For the same compound, the “spore viability [%] at day 1” value [3, 10] was 91.5%, the “spore viability [%] after 2 w (14 d)” value [3, 11] was 81.4% and the “spore viability [%] after 5 w (35 d)” value [3, 12] was 66.3%.

In the case of `CCCCCCCC/C=C\CCCCCCCC(=O)OCC(CC)CCCC` (stereo not drawn) [Radialube 7130, 2-Ethylhexyl oleate], the “spore viability [%] after 2 w (12-15 d)” value [1, 13] is reported as 98.5%, the “spore viability [%] after 1 m (27-28 d)” value [1, 14] is reported as 94.3% and the “spore viability [%] after 2 m (51-55 d)” value [1, 15] is reported as 87.9%.

For “Fatty acid monoglyceride diacetate [Radia 7909]”, the “spore viability [%] after 3 m (87-92 d)” value [1] was 78.5%, the “spore viability [%] after 5-6 w (35-40 d)” value [1] was 96.5% and the “spore viability [%] at day 1” value [1] was 98.1%. For the same compound, the “spore viability [%] 3 m@30° C. (83-85 d)” value [2] was 42.0%, the “spore viability [%] 6 w@30° C. (41-43 d)” value [2] was 75.6% and the “spore viability [%] initial (1-2 d)” value [2] was 90.6%. For the same compound, the “spore viability [%] after 2 w (14 d)” value [3] was 11.5%, the “spore viability [%] after 5 w (35 d)” value [3] was 18.1% and the “spore viability [%] at day 1” value [3] was 75.1%.

For “Neopentylglycol dicocoate [Radialube 7302]”, the “spore viability [%] after 5 w (35 d)” value [3] was 52.7%.

For Sorbitan trioleate [Radiasurf 7355], the “spore viability [%] after 3 m (87-92 d)” value [1] was 64.1%, the “spore viability [%] after 5-6 w (35-40 d)” value [1] was 96.4% and the “spore viability [%] at day 1” value [1] was 98.3%. The “spore viability [%] after 2 w (14 d)” value [3] was 71.3% and the “spore viability [%] after 5 w (35 d)” value [3] was 60.4%.

With “Trimethylolpropane Tricocoate [Radialube 7359]” the “spore viability [%] after 1 m (27-28 d)” value [1] was 87.8%, the “spore viability [%] after 2 m (51-55 d)” value [1] was 87.5% and the “spore viability [%] after 2 w (12-15 d)” value [1] was 60.6^# %. The “spore viability [%] at day 1” value [1] was 58.0^# % and the “spore viability [%] taken” value [1] was 87.3* %.

With “Trimethylolpropane Triisostearate [Radia 7380]” the “spore viability [%] after 2 w (12-15 d)” value [1, 13] was 96.5%, the “spore viability [%] after 1 m (27-28 d)” value [1, 14] was 89.3% and the “spore viability [%] after 2 m (51-55 d)” value [1, 15] was 86.0%.

With “Trimethylolpropane Trioleate [Radialube 7361]” the “spore viability [%] after 2 w (12-15 d)” value [1, 13] was 97.2%, the “spore viability [%] after 1 m (27-28 d)” value [1, 14] was 92.3% and the “spore viability [%] after 2 m (51-55 d)” value [1, 15] was 85.4%.
